# Patent US5141627A, “Chelators whose affinity for calcium ion is increased by illumination” (The Regents of the University of California, priority 1989, dated 1992)
# Bridges are numbered along the chain shown (N, C = ends). Where no end group is shown, it is not given here.
# Key:
# REF52 fibroblast cell = experiment: Intracellular free Ca2+ in REF52 fibroblasts on vasopressin stimulation and UV photolysis (fluo-3); format: cell-based, Fisher rat; conditions: 50 nM [arg8]-vasopressin
# Excerpt: The tetraacetoxymethyl esters of diazo-2 and diazo-3 were synthesized. The acetoxymethyl (AM) groups mask the negative charges on the carboxylate functions, so the AM ester of diazo-2 and diazo-3 can easily diffuse across the cell membrane, which is largely impermeable to ions. Once inside the cell, non-specific esterases in the cell hydrolytically cleave the AM esters and restore diazo-2 and diazo-3 to their tetracarboxylate forms, which being polyanions, are trapped within the cell. […] Prior to the start of data acquisition (t=0), the REF52 fibroblast cell was loaded with diazo-2 and fluo-3. […] Its fluorescence quantum yield is enhanced about 40-fold by Ca^2+ binding, which occurs with a Kd of 400 nM.
# Prior to the start of data acquisition, the REF52 fibroblast cell was loaded with fluo-3 and diazo-2 by incubation for 30 min at 25° C. DME medium containing 1 μM diazo-2/AM and 10 μM fluo-3/AM. Acquisition of fluo-3 fluorescence intensity images was begun at time 0. The fluorescence intensity data was converted to intracellular Ca^2+ concentrations using a calibration procedure previously described. The event markers correspond to 1) stimulating the cell with 50 nM [arg^8 ]-vasopressin,and 2) flashing the cell for 1 s with UV light.
# The experimental conditions were the same as in (A) except that the cell wa loaded with fluo-3 and diazo-3 (instead of diazo-2) by incubation for 90 min at 25° C. in DME medium containing 10 μm fluo-3/AM and […] diazo-3/AM. The event markers correspond to 1) stimulating the cell with 50 nM [arg^8 ]-vasopressin, and 2) flashing the cell for 1 s of UV light.
# For preliminary biological tests, Fisher rat embryo fibroblast of the REF52 cell line were cultured as described by J. P. Y. Kao, et al. (1989).
# For testing diazo-2, REF52 cells were incubated for 30 min at 25° C. in Dulbecco's modified Eagle's medium, buffered at pH 7.4 with 20 mM HEPES and containing 1 μM diazo-2/AM and 10 μM fluo-3/AM. For control experiments using diazo-3, the cells were incubated for 90 min at 25° C. in DMEM, buffered to pH 7.4 with 20 mM HEPES and containing 1 μM diazo-3/AM and […] fluo-3/AM. After loading, the cells were gently washed, transferred into Hanks' Balanced Salt Solution containing 0.2 mM sulfinpyrazone to inhibit non-specific organic anion transport (see Tsien, 1989), and mounted on a 25° C. microscope stage for experimentation.
# Flash photolysis of trapped cellular diazo-2 and the concomitant monitoring of intracellular free Ca^2+ concentration with fluo-3, a fluorescent Ca^2+ indicator, were performed using methodology and instrumentation described in A. Minta, et al (1989) and J. P. Y. Kao, et al. (1989). Briefly, output form a Xe arc lamp was passed through a monochromator to yield the 490 nm light used to probe the fluo-3 trapped intracellularly. The fluo-3 fluorescence images of cells were recorded using a SIT TV camera. Images were stored on a high-resolution monochrome laser disc recorder (Panasonic TQ-2028) for delayed processing. Photolyses were performed by briefly moving a chopper mirror to send broad-band UV from an XBO 75 W xenon arc lamp and UG-2 filter into the microscope instead of 490 nm fluo-3 excitation. The microscope objective (Nikon UV-CF, 40X) was chosen for its high UV transmission and numerical aperture (1.3). […] The same computer was used to analyze the fluorescence images acquired during the experiment.
# [1] = Ca2+ affinity by UV spectra during titration of EGTA or HEEDTA buffers; format: binding
# Protocol: (§1) The titration was done at 22° C. with 10 mL of 100 mM KCl, 10 mM K-MOPS, 10 mM K2 H.HEEDTA, and 14 […] diazo-2 as starting materials, adjusting the pH to 7.24, recording the spectrum, and then discarding 1.0 mL of this solution and replacing with 1.0 mL of 100 mM KCl, 10 mM K.MOPS, 10 mM KCa.HEEDTA, 14 μM diazo-2, readjusting the pH to 7.24, and recording the spectra, which was then in 9 mM K2H.HEEDTA. Subsequent iterations to reach n mM KCa.HEEDTA, (10-n) mM HEEDTA, n=2-10, were done by discarding 10.0/(11-n) mL and replacing with equal volumes of the 10mM KCa.HEEDTA, 14 μM diazo-2 stock. After n=10 had been reached to give free Ca^2+ between 10^-5 and 10^-4 M, addition of 1 mM CaCl2 had no further effect on the spectrum. For clarity only six spectra are including in the figure, n=0, 2, 4, 6, 8, and 10. Each spectrum is labeled with the calculated free [Ca^2+ ] imposed by the HEEDTA buffer, assuming a log effective stability constant of 5.55 at pH 7.24.
# (§2) The phenylacetate was produced by irradiating a 30 μM solution of diazo-2 in 100 mM KCl, 10 mM Tris.HCl, 10 mM K2 H.HEEDTA, pH 8.40, with Spectroline lamp at 365 nm to completion. The titration was then performed as in A but the pH was maintained at 8.40, at which the calculated log effective stability is constant for HEEDTA was 6.60.
# (§3) Ca^2+ -binding constants for chelators before and after photolysis were determined by monitoring UV spectra during titration of EGTA or HEEDTA buffers to varying free Ca^2+ levels.
# Either the ratio of, for example, [Ca.EGTA] to free [EGTA] was adjusted at a constant pH, or the pH was varied while [Ca.EGTA]=[EGTA]. These two approaches gave equivalent answers for pH>7 whenever directly tested, because of the pH insensitivity of BAPTA-like ligands (see FIG. 1 legend for more details). The apparent dissociation constants of Ca.EGTA and Ca.HEEDTA were calculated as described by R. Y. Tsien (1980); see also R. Y. Tsien, et al. (1986), S. R. Adams, et al. (1980), Grynkiewicz, et al., (1985), and Jackson, et al. (1987).
# [2] = Yield of high affinity chelator / low-affinity side product after photolysis; format: physicochemical
# Protocol: Because of the direct conjugation of the dialkylamine moiety with the diazoketone group, diazo-2 has a large absorbance in the 350-400 nm range, which shifts 50 nm to shorter wavelengths on binding Ca^2+ (FIG. 1A). The dissociation constant for Ca^2+ is relatively high, at 2.2 μM, due to the electron withdrawing ability of the carbonyl group. Photolysis occurs at 365 nm with a quantum yield of 0.030. The peak at […] in zero Ca^2+ decreases to near baseline giving a spectrum similar to that of unsubstituted BAPTA, although a small peak remains at 355 nm (FIG. 1B). […] The reaction of diazo-2 with dilute aqueous acid should give the same product whose absorbance spectrum indeed matched that of the residual peak at 355 nm after photolysis in low Ca^2+. […] Once the extinction coefficient for the hydroxyacetyl derivative was known, the amount of the side product arising from photolysis is calculated to be about 10%.
# [3] = Absorbance spectra of free and Ca2+-bound chelators; format: physicochemical
# Protocol: as §1, §2
# Proton magnetic resonance spectra (^1 H NMR) were recorded on a Varian EM-390 90-MHz spectrometer in CDCl3 unless otherwise noted, and the chemical shifts are given in δ values relative to tetramethylsilane. Ultraviolet (UV) absorbance spectra were recorded on a Cary 210 or a Perkin-Elmer Lambda Array 3840 spectrophotometer at 20°±2° C. Melting points are in Centigrade and are uncorrected. Elemental analyses were performed by the Microanalytical Laboratory in the Department of Chemistry, University of California, Berkeley, Calif.
# [4] = Mg2+ affinity in Mg/EGTA buffers; format: binding; conditions: after photolysis; 0.1-0.15M ionic strength, pH 7.0-7.4, 20-23° C.; read-out: Kd (Mg2+), after photolysis
# Protocol: as §3
# Free [Mg^2+ ] was likewise controlled by Mg/EGTA buffers, assuming an apparent dissociation constant for the Mg.EGTA complex (including its monoprotonated form) of 6 mM at pH 7.60 in 0.1M ionic strength; see R. Y. Tsien, et al. (1986) and A. E. Martell, et al. (1974).
# [5] = Quantum efficiency and completion of photolysis; format: physicochemical
# Protocol: Spectra were obtained after 0, 2, 5, 9, 16, 28, 46, 80, 150, 285, 505 and 903 sec of 365-nm illumination at 7.82×10^- 9 einsteins cm^-2 s^-1 from Spectroline lamp. For clarity only the 0-, 9-, 28-, 46-, 80-, 150-, and 505-s spectra are reproduced herein. The 505- and 903-s spectra were identical, confirming completion of photolysis after those times. Solutions were at 22±2° C.
# The method was as described in FIG. 1B except that the EGTA was replaced by 2 mM CaCl2, and spectra were measured after 0-, 50-, 100-, 203-, 412-, 840-, 1730-, 4080-, and 8000-s illumination. The last two spectra were identical, confirming completion. For clarity the 50- and 8000-s spectra are omitted.
# The photolysis quantum efficiencies of diazo chelators were determined by alternately irradiating a buffered solution of the substrate with a known intensity of longwave UV light, and measuring the absorbance spectrum, in apparatus described by S. R. Adams, et al. (1988), supra.
molecule,measurement,setting,value
"[arg^8 ]-vasopressin: stimulus of the REF52 cell, 50 nM (CYFQNCPRG-NH2; disulfide 1-6; UniProt P01185 20-28, looked up) [reference compound]",[Ca2+]i response to stimulation (in words),REF52 fibroblast cell,sharp but transient rise
same,[Ca2+]i plateau after stimulation,REF52 fibroblast cell; before UV,about 200 nM
"[N-]=[N+]=CC(=O)c1ccc(N(CC(=O)O)CC(=O)O)c(OCCOc2cc(C(=O)C=[N+]=[N-])ccc2N(CC(=O)O)CC(=O)O)c1 [diazo-4, 1,2-bis(2-bis(carboxymethyl)amino-5-(diazoacetyl)phenoxy)ethane]",Kd,"[1]; after photolysis, 0.1-0.15M ionic strength, 20-23° C., read-out: Kd (Ca2+), after photolysis",0.055 µM
same,Kd,"[1]; before photolysis, 0.1-0.15M ionic strength, pH 7.0-7.4, 20-23° C., read-out: Kd (Ca2+), before photolysis",89 µM
same,change in Ca2+ affinity upon photolysis,[1]; complete photolysis,1600 fold
same,Photolysis yield (yield of high affinity Ca2+ chelator after photolysis),[2]; after photolysis,88
same,"low-affinity side product on complete photolysis, expected","[2]; complete photolysis, expected",19%
same,"low-affinity side product on complete photolysis, measured",[2]; residual absorbance at 355 nm,20%
same,"εmax, +Ca2+","[3]; +Ca2+, at λmax","42.3 10^-3, M^-1 cm^-1"
same,"λmax, +Ca2+","[3]; +Ca2+, dominant peak at longest wavelength",320 nm
same,"εmax, free","[3]; free (zero Ca2+), at λmax","46.0 10^-3, M^-1 cm^-1"
same,"λmax, free","[3]; free (zero Ca2+), dominant peak at longest wavelength",371 nm
same,Kd,[4],2600 µM
same,quantum yield relative to diazo-2,[5]; compared with diazo-2,approximately half that of diazo-2
same,"Φ quantum efficiency of photolysis, +Ca2+",[5]; saturating [Ca2+],0.015
same,"Φ quantum efficiency of photolysis, free",[5]; zero [Ca2+],0.015
Cc1ccc(N(CC(=O)O)CC(=O)O)c(OCCOc2cc(C(=O)CO)ccc2N(CC(=O)O)CC(=O)O)c1 [para-(2-hydroxyacetyl) derivative],Kd,"[1]; side product after photolysis of diazo-2, from deviation of Hill plot, read-out: dissociation constant of side product",~1 µM
same,amount of side product arising from photolysis,"[2]; hydroxyacetyl derivative, from photolysis of diazo-2, calculated",about 10%
same,photosensitivity (in words),[5]; product of diazo-2 with dilute aqueous acid,complete lack of photosensitivity
